Measurements as given in patent US20240091169A1, “POL[…] FOR TREATING INFLAMMATORY DISEASES” (UNIVERSITY OF SOUTH CAROLINA, priority 2022, published 2024).

System: BMDMs cultured with C26 CM
Experiment: Macrophage polarization of BMDMs cultured with C26 CM (flow cytometry)
Type: cell-based, C57BL/6 mice
Conditions: 48 hr, PA vs VEH
Experimental: Bone marrow-derived macrophages (BMDMs) were isolated from healthy 10-14-week-old C57BL/6 male mice. Briefly, mice were euthanized by isoflurane overdose. Femurs were cleared of muscle and debris. The epiphyses of the femurs were cut and placed knee-down and spun down in a 1.5 mL tube. Bone marrow was collected and resuspended in complete DMEM (cDMEM; 10% FBS, 1% penicillin/streptomycin) and passed through two 100 μm strainers. Cells were plated on an untreated 10 cm dish in cDMEM and allowed to incubate at 37° C. for 4 hr. Adherent/mature monocytes and dendritic cells were discarded, while floating/immature monocytes were collected. Cells were subjected to RBC lysis and resuspended in bone marrow maintenance media (BMMM; 20% L929-conditioned media in cDMEM). Cells were then plated on surface-treated 6-well plates at a 250 k cells/well seeding density. On day 3, fresh BMMM was added. On day 5, media was aspirated and fresh BMMM was added. For M2 macrophage polarization experiments, 6-day mature macrophages were given either cDMEM+VEH, M2 media (cDMEM with 10 ng/mL IL-4)+VEH, or M2 media+1 μM PA. Cells were incubated for 24 hr. For C26 colon tumor conditioned media (C26 CM) experiments, 6-day mature macrophages were given either serum-free media (SFM)+VEH, 33% C26-conditioned media (C26 CM)+VEH, or 33% C26 CM+1, 2.5, or 5 μM PA. Cells were incubated for 48 hr. After incubation with these different treatments, cells were washed twice with PBS and incubated with 5 mM EDTA PBS at 4° C. for 20 min. Cells were then gently scraped and transferred into flow tubes, spun at 1600 rpm at 4° C. for 5 min, and washed in PBS before antibody staining. Cells were stained and analyzed for macrophages via flow cytometry as described above with the addition of analyzing macrophage phenotypes. From the CD11b^+CD68^+ macrophage population, macrophage phenotypes were determined based on CD206 and CD11c expression. CD206^−CD11c^− cells were identified as M0 macrophages; CD206^−CD11c^+ as M1 macrophages; CD206^+CD11c^− cells as M2 macrophages; CD206^+CD11c^+ as M1-M2 transitional macrophages. All cells were measured using a FACS Aria II (BD) and analyzed using FlowJo (BD Biosciences). Three independent experiments were carried out for each in vitro assessment.

SMILES: C=CC(O)C#CC#CC/C=C\CCCCCCC (stereo in doubt) [PA, 3(R)-(9Z)-heptadeca-1,9-dien-4,6-diyn-3-ol]
- relative abundance of M0 macrophages: No significant differences
- relative abundance of M1-M2 macrophages: No significant differences
- relative abundance of M1 macrophages: No significant differences
- relative abundance of pro-tumoral M2 macrophages (p≤0.05): significantly reduced
